Measurements from paper PMC3257383 (Journal of Medicinal Chemistry, 2011).

target: CYP3A4 baculosomes (Homo sapiens, UniProt P08684); assay: Saturation kinetics of metabolism by CYP3A4; type: in vitro ADME; settings: compared with compound 2 of series 1

kcat smaller than type I binding compound 2	Compound
more than 2 fold	CN(C)c1ccc(NC(=O)c2cc(-c3ccncc3)nc3ccccc23)cc1 [Compound 6]

same assay, conditions: compared with compound 10 of series 3

kcat larger than type I binding compound 10 [times]	Compound
1.2	CN(C)c1ccc(NC(=O)c2cc(-c3ccncc3)nc3ccccc23)cc1 [Compound 6]

same assay, conditions: compared with compounds 3 and 11

kcat higher than type I binding compounds 3 and 11	Compound
about 1.5 times	O=C(Nc1ccccc1)c1cc(-c2ccncc2)nc2ccccc12 [Compound 7]

same assay, conditions: type II binding compounds, relative to aromatic hydroxylation in ring A

rate of benzylic hydroxylation compared to O-demethylation of compound 5	Compound
about three fold faster	Cc1ccc(NC(=O)c2cc(-c3ccncc3)nc3ccccc23)cc1 [Compound 8]

target: Purified CYP3A4 (Homo sapiens, UniProt P08684, S18F); assay: not given; settings: not given

Compound	Binding mode
O=C(Nc1ccccc1)c1cc(-c2ccccc2)nc2ccccc12 [Compound 3]	Type I
Cc1ccc(NC(=O)c2cc(-c3ccccc3)nc3ccccc23)cc1 [Compound 4]	Type I
COc1ccc(NC(=O)c2cc(-c3ccncc3)nc3ccccc23)cc1 [Compound 5]	Type II
O=C(Nc1ccccc1)c1cc(-c2ccncc2)nc2ccccc12 [Compound 7]	Type II
Cc1ccc(NC(=O)c2cc(-c3ccncc3)nc3ccccc23)cc1 [Compound 8]	Type II
COc1ccc(NC(=O)c2cc(-c3cnccn3)nc3ccccc23)cc1 [Compound 13]	Type II
O=C(Nc1ccccc1)c1cc(-c2cnccn2)nc2ccccc12 [Compound 15]	Type II
O=C(Nc1ccccc1)c1cc(-c2ccncn2)nc2ccccc12 [Compound 19]	Type II

Continued, values first:

Binding mode	Compound
Type I	CN(C)c1ccc(NC(=O)c2cc(-c3ccccc3)nc3ccccc23)cc1 [Compound 2]
Type II ^b	CN(C)c1ccc(NC(=O)c2cc(-c3ccncc3)nc3ccccc23)cc1 [Compound 6]
Type I	COc1ccc(NC(=O)c2cc(-c3ccccn3)nc3ccccc23)cc1 [Compound 9]
Type I	CN(C)c1ccc(NC(=O)c2cc(-c3ccccn3)nc3ccccc23)cc1 [Compound 10]
Type I	O=C(Nc1ccccc1)c1cc(-c2ccccn2)nc2ccccc12 [Compound 11]
Type I	Cc1ccc(NC(=O)c2cc(-c3ccccn3)nc3ccccc23)cc1 [Compound 12]
Type II	CN(C)c1ccc(NC(=O)c2cc(-c3cnccn3)nc3ccccc23)cc1 [Compound 14]
Type II	Cc1ccc(NC(=O)c2cc(-c3cnccn3)nc3ccccc23)cc1 [Compound 16]
Type II	COc1ccc(NC(=O)c2cc(-c3ccncn3)nc3ccccc23)cc1 [Compound 17]
Type II	CN(C)c1ccc(NC(=O)c2cc(-c3ccncn3)nc3ccccc23)cc1 [Compound 18]
Type II	Cc1ccc(NC(=O)c2cc(-c3ccncn3)nc3ccccc23)cc1 [Compound 20]

same assay, conditions: human, 20 µM, pH 7.4

Compound	Soret peak [nm]	Soret trough [nm]
O=C(Nc1ccccc1)c1cc(-c2ccccc2)nc2ccccc12 [Compound 3]	392	417
Cc1ccc(NC(=O)c2cc(-c3ccccc3)nc3ccccc23)cc1 [Compound 4]	393	417
COc1ccc(NC(=O)c2cc(-c3ccncc3)nc3ccccc23)cc1 [Compound 5]	427	391
O=C(Nc1ccccc1)c1cc(-c2ccncc2)nc2ccccc12 [Compound 7]	427	394
Cc1ccc(NC(=O)c2cc(-c3ccncc3)nc3ccccc23)cc1 [Compound 8]	428	392
COc1ccc(NC(=O)c2cc(-c3cnccn3)nc3ccccc23)cc1 [Compound 13]	423	396
O=C(Nc1ccccc1)c1cc(-c2cnccn2)nc2ccccc12 [Compound 15]	427	397
O=C(Nc1ccccc1)c1cc(-c2ccncn2)nc2ccccc12 [Compound 19]	424	390

Second part, the compound after the results:

Soret peak [nm]	Soret trough [nm]	Compound
385	416	CN(C)c1ccc(NC(=O)c2cc(-c3ccccc3)nc3ccccc23)cc1 [Compound 2]
427	392	CN(C)c1ccc(NC(=O)c2cc(-c3ccncc3)nc3ccccc23)cc1 [Compound 6]
388	417	COc1ccc(NC(=O)c2cc(-c3ccccn3)nc3ccccc23)cc1 [Compound 9]
386	416	CN(C)c1ccc(NC(=O)c2cc(-c3ccccn3)nc3ccccc23)cc1 [Compound 10]
389	418	O=C(Nc1ccccc1)c1cc(-c2ccccn2)nc2ccccc12 [Compound 11]
391	416	Cc1ccc(NC(=O)c2cc(-c3ccccn3)nc3ccccc23)cc1 [Compound 12]
425	393	CN(C)c1ccc(NC(=O)c2cc(-c3cnccn3)nc3ccccc23)cc1 [Compound 14]
422	391	Cc1ccc(NC(=O)c2cc(-c3cnccn3)nc3ccccc23)cc1 [Compound 16]
425	391	COc1ccc(NC(=O)c2cc(-c3ccncn3)nc3ccccc23)cc1 [Compound 17]
422	392	CN(C)c1ccc(NC(=O)c2cc(-c3ccncn3)nc3ccccc23)cc1 [Compound 18]
425	390	Cc1ccc(NC(=O)c2cc(-c3ccncn3)nc3ccccc23)cc1 [Compound 20]
